# ChEMBL document CHEMBL1201862, “PubChem BioAssay data set” (2004)
#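 Results reflect a 48-hour exposure of cells in 96-well plates to compound at five concentrations. GI50: concentration for 50% inhibition of growth.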 The source made the active and inactive calls. Cut-off read from the data, not from the text of the source: active = GI50 up to about 1.1 µM and inactive = higher.
# How the values were obtained:
# Assay in all cases: NCI anticancer screen, dose series, 48 h
# 786-0 = tested on: 786-0
# A498 = tested on: A498
# A549 = tested on: A549
# ACHN = tested on: ACHN
# BT-549 = tested on: BT-549
# CAKI-1 = tested on: CAKI-1
# COLO 205 = tested on: COLO 205
# DU-145 = tested on: DU-145
# EKVX = tested on: EKVX
# HCC 2998 = tested on: HCC 2998
# HCT-116 = tested on: HCT-116
# HCT-15 = tested on: HCT-15
# HOP-92 = tested on: HOP-92
# HT-29 = tested on: HT-29
# Hs-578T = tested on: Hs-578T
# IGROV-1 = tested on: IGROV-1
# K562 = tested on: K562
# KM12 = tested on: KM12
# LOX IMVI = tested on: LOX IMVI
# M14 = tested on: M14
# MCF7 = tested on: MCF7
# MDA-MB-231 = tested on: MDA-MB-231
# MDA-MB-435 = tested on: MDA-MB-435
# MDA-N = tested on: MDA-N
# MOLT-4 = tested on: MOLT-4
# Malme-3M = tested on: Malme-3M
# NCI-H226 = tested on: NCI-H226
# NCI-H23 = tested on: NCI-H23
# NCI-H460 = tested on: NCI-H460
# NCI-H522 = tested on: NCI-H522
# NCI/ADR-RES = tested on: NCI/ADR-RES
# OVCAR-3 = tested on: OVCAR-3
# OVCAR-4 = tested on: OVCAR-4
# OVCAR-5 = tested on: OVCAR-5
# OVCAR-8 = tested on: OVCAR-8
# PC-3 = tested on: PC-3
# RXF 393 = tested on: RXF 393
# SF-268 = tested on: SF-268
# SF-295 = tested on: SF-295
# SF-539 = tested on: SF-539
# SK-MEL-28 = tested on: SK-MEL-28
# SK-MEL-2 = tested on: SK-MEL-2
# SK-MEL-5 = tested on: SK-MEL-5
# SK-OV-3 = tested on: SK-OV-3
# SN12C = tested on: SN12C
# SNB-19 = tested on: SNB-19
# SNB-75 = tested on: SNB-75
# SR = tested on: SR
# SW-620 = tested on: SW-620
# T47D = tested on: T47D
# TK-10 = tested on: TK-10
# U-251 = tested on: U-251
# UACC-257 = tested on: UACC-257
# UACC-62 = tested on: UACC-62
# UO-31 = tested on: UO-31
# CCRF-CEM = tested on: CCRF-CEM
# HL-60 = tested on: HL-60
# HOP-62 = tested on: HOP-62
# RPMI-8226 = tested on: RPMI-8226
smiles,measurement,setting,value
CC1(C)CC(=O)c2[nH]c3ccccc3c2CC(=O)NCCc2cn1cn2,GI50,786-0,18.6 µM (inactive)
same,GI50,A498,> 100 µM (inactive)
same,GI50,A549,> 100 µM (inactive)
same,GI50,ACHN,61.1 µM (inactive)
same,GI50,BT-549,> 100 µM (inactive)
same,GI50,CAKI-1,> 100 µM (inactive)
same,GI50,COLO 205,> 100 µM (inactive)
same,GI50,DU-145,> 100 µM (inactive)
same,GI50,EKVX,> 100 µM (inactive)
same,GI50,HCC 2998,> 100 µM (inactive)
same,GI50,HCT-116,> 100 µM (inactive)
same,GI50,HCT-15,> 100 µM
same,GI50,HOP-92,36.5 µM (inactive)
same,GI50,HT-29,> 100 µM (inactive)
same,GI50,Hs-578T,33.5 µM (inactive)
same,GI50,IGROV-1,> 100 µM (inactive)
same,GI50,K562,> 100 µM (inactive)
same,GI50,KM12,> 100 µM (inactive)
same,GI50,LOX IMVI,> 100 µM (inactive)
same,GI50,M14,> 100 µM (inactive)
same,GI50,MCF7,> 100 µM (inactive)
same,GI50,MDA-MB-231,88.1 µM (inactive)
same,GI50,MDA-MB-435,> 100 µM (inactive)
same,GI50,MDA-N,> 100 µM (inactive)
same,GI50,MOLT-4,> 100 µM (inactive)
same,GI50,Malme-3M,> 100 µM (inactive)
same,GI50,NCI-H226,> 100 µM (inactive)
same,GI50,NCI-H23,> 100 µM (inactive)
same,GI50,NCI-H460,> 100 µM (inactive)
same,GI50,NCI-H522,> 100 µM (inactive)
same,GI50,NCI/ADR-RES,> 100 µM (inactive)
same,GI50,OVCAR-3,> 100 µM (inactive)
same,GI50,OVCAR-4,> 100 µM (inactive)
same,GI50,OVCAR-5,> 100 µM (inactive)
same,GI50,OVCAR-8,> 100 µM (inactive)
same,GI50,PC-3,> 100 µM (inactive)
same,GI50,RXF 393,73.8 µM (inactive)
same,GI50,SF-268,> 100 µM (inactive)
same,GI50,SF-295,82.8 µM (inactive)
same,GI50,SF-539,> 100 µM (inactive)
same,GI50,SK-MEL-28,> 100 µM (inactive)
same,GI50,SK-MEL-2,> 100 µM (inactive)
same,GI50,SK-MEL-5,> 100 µM (inactive)
same,GI50,SK-OV-3,> 100 µM (inactive)
same,GI50,SN12C,> 100 µM (inactive)
same,GI50,SNB-19,28 µM (inactive)
same,GI50,SNB-75,> 100 µM (inactive)
same,GI50,SR,> 100 µM (inactive)
same,GI50,SW-620,> 100 µM (inactive)
same,GI50,T47D,> 100 µM (inactive)
same,GI50,TK-10,> 100 µM (inactive)
same,GI50,U-251,56.6 µM (inactive)
same,GI50,UACC-257,> 100 µM (inactive)
same,GI50,UACC-62,> 100 µM (inactive)
same,GI50,UO-31,> 100 µM (inactive)
Fc1ccccc1C1SCC2=Nc3ccccc3CN21 (stereo not given),GI50,786-0,95.3 µM (inactive)
same,GI50,A498,> 100 µM (inactive)
same,GI50,A549,> 100 µM (inactive)
same,GI50,ACHN,> 100 µM (inactive)
same,GI50,BT-549,> 100 µM (inactive)
same,GI50,CAKI-1,> 100 µM (inactive)
same,GI50,CCRF-CEM,> 100 µM (inactive)
same,GI50,COLO 205,> 100 µM (inactive)
same,GI50,DU-145,> 100 µM (inactive)
same,GI50,EKVX,> 100 µM (inactive)
same,GI50,HCC 2998,> 100 µM (inactive)
same,GI50,HCT-116,48.5 µM (inactive)
same,GI50,HCT-15,> 100 µM
same,GI50,HL-60,> 100 µM (inactive)
same,GI50,HOP-62,67.1 µM (inactive)
same,GI50,HOP-92,> 100 µM (inactive)
same,GI50,HT-29,> 100 µM (inactive)
same,GI50,Hs-578T,> 100 µM (inactive)
same,GI50,K562,> 100 µM (inactive)
same,GI50,KM12,> 100 µM (inactive)
same,GI50,LOX IMVI,> 100 µM (inactive)
same,GI50,M14,> 100 µM (inactive)
same,GI50,MCF7,80.2 µM (inactive)
same,GI50,MDA-MB-231,> 100 µM (inactive)
same,GI50,MDA-MB-435,> 100 µM (inactive)
same,GI50,MDA-N,> 100 µM (inactive)
same,GI50,MOLT-4,> 100 µM (inactive)
same,GI50,NCI-H23,> 100 µM (inactive)
same,GI50,NCI-H460,> 100 µM (inactive)
same,GI50,NCI/ADR-RES,> 100 µM (inactive)
same,GI50,OVCAR-3,97.1 µM (inactive)
same,GI50,OVCAR-4,> 100 µM (inactive)
same,GI50,OVCAR-5,92.9 µM (inactive)
same,GI50,OVCAR-8,> 100 µM (inactive)
same,GI50,PC-3,> 100 µM (inactive)
same,GI50,RPMI-8226,> 100 µM (inactive)
same,GI50,RXF 393,> 100 µM (inactive)
same,GI50,SF-268,54.1 µM (inactive)
same,GI50,SF-295,70.8 µM (inactive)
same,GI50,SF-539,94.8 µM (inactive)
same,GI50,SK-MEL-28,> 100 µM (inactive)
same,GI50,SK-MEL-2,43.6 µM (inactive)
same,GI50,SK-MEL-5,89.7 µM (inactive)
same,GI50,SK-OV-3,> 100 µM (inactive)
same,GI50,SN12C,> 100 µM (inactive)
same,GI50,SNB-19,> 100 µM (inactive)
same,GI50,SNB-75,> 100 µM (inactive)
same,GI50,SR,79.8 µM (inactive)
same,GI50,SW-620,> 100 µM (inactive)
same,GI50,T47D,> 100 µM (inactive)
same,GI50,TK-10,> 100 µM (inactive)
same,GI50,U-251,> 100 µM (inactive)
same,GI50,UACC-257,> 100 µM (inactive)
same,GI50,UACC-62,99.8 µM (inactive)
same,GI50,UO-31,> 100 µM (inactive)
